Test system: A549 cells
Assay: Apoptotic caspase activation (Western blot for PARP cleavage)
Conditions: 48 h, extract 25 μg/ml and 50 μg/ml, staurosporine as positive control, FIG. 3

## CN[C@@H]1C[C@H]2O[C@@](C)([C@@H]1OC)n1c3ccccc3c3c4c(c5c6ccccc6n2c5c31)C(=O)NC4 [staurosporine]
  cleavage of the caspase substrate PARP (caspase activity): efficient cleavage of the caspase substrate
